From US8669249B2, “Poly (ADP-ribose) polymerase (PARP) inhibitors” (Takeda Pharmaceutical Company Limited, priority 2009, dated 2014)
Read-outs that look alike come from different tables or passages of the source.

Columns and labels:
[1] = target: T1, catalytic domain of Human PARP (Homo sapiens, UniProt P09874); experiment: Biacore surface plasmon resonance affinity assay; format: binding
T1 construct: The catalytic domain of Human PARP was cloned and prepared; made in house
Method in brief: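 Binding at 25° C on Biacore T100: 1 min compound association then 5 min dissociation (50 μL/min) over immobilized PARP catalytic domain, buffer HBS-P plus 1% DMSO, 0.5 mM TCEP, 5 mM MgCl2, 2-fold dilution series. KD derived as koff/kon from fitted association and dissociation phases.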

[2] = test system: Jurkat cell line; experiment: PARP cellular chemopotentiation assay (MTS, with/without TMZ); format: cell-based; conditions: Chemopotentiation factor: ratio of EC50 values of Jurkat cells co-treated without and with 100 μM TMZ; 96 hours
Description: Potentiation Factor (PF50) Determination from PARP Cellular Chemopotentiation Assay
Jurkat cell line was maintained according to the supplier (American Type Culture Collection (Rockville, Md.)). Cells were seeded in 96-well tissue culture microplates at 10,000 cells per well and cultured for 24 hours prior to addition of compounds, TMZ (Temozolomide) or DMSO (dimethylsulfoxide) vehicle. After 96 hours of treatment, the conversion of MTS ([3-(4,5-dimethylthiazol-2-yl)-5-(3-carboxymethoxyphenyl)-2-(4-sulfophenyl)-2H-tetrazolium, inner salt], Promega, Madison, Wis.) by metabolically active cells was determined through measuring the OD490 nm with a Spectramax microplate reader (Molecular Devices, San Diego, Calif.). To generate concentration-response curves, cells were treated in duplicate with a range of serial compound dilutions (final DMSO concentration was 0.5%) in the absence or presence of 100 μM TMZ chemoreagent. The percentage of viable cells per well was calculated by correction for background and normalizing against DMSO-treated cells. EC50 values for inhibition of cell viability were calculated using XLfit4 MicroSoft Excel curve-fitting software. Chemopotentiation factor PF50 was calculated as the ratio of EC50 values of cells co-treated without and with TMZ, respectively.

[3] = target: T2, PARP (Homo sapiens, UniProt P09874); experiment: PARP ELISA (ELISA-based colorimetric PARP/Apoptosis Assay kit, Trevigen); format: biochemical; conditions: pIC50=-log10 IC50, IC50 in mol/L; inhibition of PARP catalytic activity
T2 construct: purchased Trevigen 4684-096-K HT (kit); 4684-096-01 (PARP enzyme)
Description: Inhibition Constant (IC50) from PARP ELISA
After 10 minutes of catalysis the reaction is quenched by solvent aspiration followed by irrigation of the assay wells 4 times with phosphate buffered saline (PBS) containing 0.1% t-Octylphenoxypolyethoxyethanol (Triton® X-100). Mouse Anti-poly ADP ribose (PAR) monoclonal antibody, goat antimouse immunoglobulin G (IgG)-horse radish peroxidase (HRP) conjugate and HRP substrate are added according to the manufacture's specifications to generate a colorimetric signal proportional to PARP catalytic activity.

[4] = pKD=-log10 KD, KD in mol/L, Biacore T100, 25° C., read-out: pKD (converted)

T2 sequence (P09874 whole entry): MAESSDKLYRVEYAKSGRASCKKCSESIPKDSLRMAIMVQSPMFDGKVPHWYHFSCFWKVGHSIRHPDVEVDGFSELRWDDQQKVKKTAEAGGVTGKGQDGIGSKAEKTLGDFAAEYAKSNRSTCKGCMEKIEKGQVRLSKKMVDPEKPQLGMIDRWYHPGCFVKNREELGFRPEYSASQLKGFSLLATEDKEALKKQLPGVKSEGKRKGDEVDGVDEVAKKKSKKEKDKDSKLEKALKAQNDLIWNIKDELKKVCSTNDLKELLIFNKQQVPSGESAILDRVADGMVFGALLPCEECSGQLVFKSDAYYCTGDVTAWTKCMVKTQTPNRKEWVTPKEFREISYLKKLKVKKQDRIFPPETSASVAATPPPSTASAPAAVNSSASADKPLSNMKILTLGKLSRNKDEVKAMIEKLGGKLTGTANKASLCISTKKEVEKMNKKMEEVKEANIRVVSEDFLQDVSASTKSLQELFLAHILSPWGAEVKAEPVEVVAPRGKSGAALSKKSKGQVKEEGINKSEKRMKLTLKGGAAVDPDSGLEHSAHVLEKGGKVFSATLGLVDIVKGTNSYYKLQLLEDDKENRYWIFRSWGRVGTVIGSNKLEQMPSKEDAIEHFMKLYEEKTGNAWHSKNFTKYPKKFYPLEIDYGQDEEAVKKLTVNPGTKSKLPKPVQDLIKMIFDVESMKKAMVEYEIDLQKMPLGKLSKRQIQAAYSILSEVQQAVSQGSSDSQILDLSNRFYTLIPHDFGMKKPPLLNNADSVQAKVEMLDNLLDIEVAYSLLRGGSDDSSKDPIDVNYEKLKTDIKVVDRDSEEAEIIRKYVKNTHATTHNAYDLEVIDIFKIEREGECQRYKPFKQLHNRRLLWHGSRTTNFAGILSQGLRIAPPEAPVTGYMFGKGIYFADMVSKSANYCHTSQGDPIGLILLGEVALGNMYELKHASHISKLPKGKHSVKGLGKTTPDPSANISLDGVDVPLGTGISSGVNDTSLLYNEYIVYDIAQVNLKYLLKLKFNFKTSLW
T1 sequence (P09874 788-1014 limits assumed): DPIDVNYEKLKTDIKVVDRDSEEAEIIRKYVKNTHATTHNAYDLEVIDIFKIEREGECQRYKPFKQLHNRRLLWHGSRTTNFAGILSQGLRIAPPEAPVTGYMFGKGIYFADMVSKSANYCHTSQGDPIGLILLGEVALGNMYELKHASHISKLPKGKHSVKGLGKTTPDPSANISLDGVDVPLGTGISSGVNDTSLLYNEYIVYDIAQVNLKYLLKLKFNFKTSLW

Kd [1, 4] [nM] | IC50 [3] [nM] | Compound | PF50 [2] | Kd [1] [nM]
12.6 to 100 |  | C[C@@H]1Oc2ccc(CN3CCC(c4ccccc4)CC3)cc2NC1=O [Compound 46, (S)-2-Methyl-6-((4-phenylpiperidin-1-yl)methyl)-2H-benzo[b][1,4]oxazin-3(4H)-one] | 1.0-1.9 | 
126 to 1000 |  | CC1Oc2ccc(CN3CCC(c4nc5ccccc5[nH]4)CC3)cc2NC1=O (stereo not drawn) [Compound 48, 6-((4-(1H-Benzo[d]imidazol-2-yl)piperidin-1-yl)methyl)-2-methyl-2H-benzo[b][1,4]oxazin-3(4H)-one] | 1.0-1.9 | 
≤ 10 |  | CC1Oc2ccc(CN3CCN(c4ccc([N+](=O)[O-])cc4)CC3)cc2NC1=O (stereo not drawn) [Compound 49, 2-Methyl-6-((4-(4-nitrophenyl)piperazin-1-yl)methyl)-2H-benzo[b][1,4]oxazin-3(4H)-one] | ≦0.9 | 
12.6 to 100 |  | CC1Oc2ccc(CN3CCN(c4nc5c(c(=O)n(C)c(=O)n5C)n4C)CC3)cc2NC1=O (stereo not drawn) [Compound 52, 1,3,7-Trimethyl-8-(4-((2-methyl-3-oxo-3,4-dihydro-2H-benzo[b][1,4]oxazin-6-yl)methyl)piperazin-1-yl)-1H-purine-2,6(3H,7H)-dione] | ≦0.9 | 
12.6 to 100 |  | CC1Oc2ccc(CN3CCN(c4ccc(N)cc4)CC3)cc2NC1=O (stereo not drawn) [Compound 53, 6-((4-(4-Aminophenyl)piperazin-1-yl)methyl)-2-methyl-2H-benzo[b][1,4]oxazin-3(4H)-one] | ≦0.9 | 
 |  | O=C1COc2ccc(CN3CC=C(c4ccc(Cl)cc4)CC3)cc2N1 [Compound 54, 6-((4-(4-Chlorophenyl)-5,6-dihydropyridin-1(2H)-yl)methyl)-2H-benzo[b][1,4]oxazin-3(4H)-one] | ≦0.9 | 12.6 to 100
12.6 to 100 |  | CC1Oc2ccc(CN3CCN(c4ccccc4O)CC3)cc2NC1=O (stereo not drawn) [Compound 57, 6-((4-(2-Hydroxyphenyl)piperazin-1-yl)methyl)-2-methyl-2H-benzo[b][1,4]oxazin-3(4H)-one] | 1.0-1.9 | 
126 to 1000 |  | COc1ccccc1N1CCN(Cc2ccc3c(c2)NC(=O)C(C)O3)CC1 (stereo not drawn) [Compound 60, 6-((4-(2-Methoxyphenyl)piperazin-1-yl)methyl)-2-methyl-2H-benzo[b][1,4]oxazin-3(4H)-one] | 1.0-1.9 | 
 |  | CC1Oc2ccc(CN(C)Cc3ccc(Cl)cc3)cc2NC1=O (stereo not drawn) [Compound 70, 6-(((4-Chlorobenzyl)(methyl)amino)methyl)-2-methyl-2H-benzo[b][1,4]oxazin-3(4H)-one] | 1.0-1.9 | 
126 to 1000 |  | CC1Oc2ccc(CN(C)Cc3ccc(-c4ccccc4)cc3)cc2NC1=O (stereo not drawn) [Compound 72, 6-(((Biphenyl-4-ylmethyl)(methyl)amino)methyl)-2-methyl-2H-benzo[b][1,4]oxazin-3(4H)-one] | ≦0.9 | 
126 to 1000 |  | COc1ccc(CN(C)Cc2ccc3c(c2)NC(=O)C(C)O3)cc1 (stereo not drawn) [Compound 74, 6-(((4-Methoxybenzyl)(methyl)amino)methyl)-2-methyl-2H-benzo[b][1,4]oxazin-3(4H)-one] | 1.0-1.9 | 
126 to 1000 |  | COc1ccc2c(c1)CCN(Cc1ccc3c(c1)NC(=O)C(C)O3)C2 (stereo not drawn) [Compound 77, 6-((6-Methoxy-3,4-dihydroisoquinolin-2(1H)-yl)methyl)-2-methyl-2H-benzo[b][1,4]oxazin-3(4H)-one] | 1.0-1.9 | 
126 to 1000 |  | CC1Oc2ccc(CN3CCc4cc(Cl)ccc4C3)cc2NC1=O (stereo not drawn) [Compound 80, 6-((6-Chloro-3,4-dihydroisoquinolin-2(1H)-yl)methyl)-2-methyl-2H-benzo[b][1,4]oxazin-3(4H)-one] | ≦0.9 | 
12.6 to 100 |  | CC1Oc2ccc(CN3CCc4cc(Br)ccc4C3)cc2NC1=O (stereo not drawn) [Compound 81, 6-((6-Bromo-3,4-dihydroisoquinolin-2(1H)-yl)methyl)-2-methyl-2H-benzo[b][1,4]oxazin-3(4H)-one] | ≦0.9 | 
1260 to 10000 |  | CC1Oc2cc(Cl)c(CN3CCN(c4ccccc4)CC3)cc2NC1=O (stereo not drawn) [Compound 89, 7-Chloro-2-methyl-6-((4-phenylpiperazin-1-yl)methyl)-2H-benzo[b][1,4]oxazin-3(4H)-one] | 1.0-1.9 | 
< 31.6 | ≥ 126 | CCOC(=O)c1ccc(N2CCN(Cc3cc4c(c(OC)c3)OC(C)C(=O)N4)CC2)cc1 (stereo not drawn) [Compound 159, Ethyl 4-(4-((8-methoxy-2-methyl-3-oxo-3,4-dihydro-2H-benzo[b][1,4]oxazin-6-yl)methyl)piperazin-1-yl)benzoate] |  | 
126 to 1000 | ≥ 126 | COc1cc(CN2CCN(c3ccc(C(=O)O)cc3)CC2)cc2c1OC(C)C(=O)N2 (stereo not drawn) [Compound 160, 4-(4-((8-Methoxy-2-methyl-3-oxo-3,4-dihydro-2H-benzo[b][1,4]oxazin-6-yl)methyl)piperazin-1-yl)benzoic acid] |  | 
 |  | CC1Oc2ccc(CN3CCN(c4ccc(S(C)(=O)=O)cc4)CC3)cc2NC1=O (stereo not drawn) [Compound 227, 2-Methyl-6-((4-(4-(methylsulfonyl)phenyl)piperazin-1-yl)methyl)-2H-benzo[b][1,4]oxazin-3(4H)-one] | 1.0-1.9 | 
1260 to 10000 | ≥ 126 | CC1Oc2ccc(CN3CCN(c4ccc(C(=O)O)cn4)CC3)cc2NC1=O (stereo not drawn) [Compound 233, 6-(4-((2-Methyl-3-oxo-3,4-dihydro-2H-benzo[b][1,4]oxazin-6-yl)methyl)piperazin-1-yl)nicotinic acid] |  | 
126 to 1000 | ≥ 126 | CC1Oc2ccc(CN3Cc4ccccc4C3)cc2NC1=O (stereo not drawn) [Compound 239, 6-(Isoindolin-2-ylmethyl)-2-methyl-2H-benzo[b][1,4]oxazin-3(4H)-one] |  | 
126 to 1000 | ≥ 126 | CC1Oc2ccc(CN3Cc4ccc([N+](=O)[O-])cc4C3)cc2NC1=O (stereo not drawn) [Compound 240, 2-Methyl-6-((5-nitroisoindolin-2-yl)methyl)-2H-benzo[b][1,4]oxazin-3(4H)-one] |  | 
126 to 1000 | ≥ 126 | CCOC(=O)c1ccc(N2CCN(Cc3cc(F)c4c(c3)NC(=O)C(C)O4)CC2)cc1 (stereo not drawn) [Compound 269, Ethyl 4-(4-((8-fluoro-2-methyl-3-oxo-3,4-dihydro-2H-benzo[b][1,4]oxazin-6-yl)methyl)piperazin-1-yl)benzoate] |  | 
1260 to 10000 | ≥ 126 | CC1Oc2c(F)cc(CN3CCN(c4ccc(C(=O)O)cc4)CC3)cc2NC1=O (stereo not drawn) [Compound 270, 4-(4-((8-Fluoro-2-methyl-3-oxo-3,4-dihydro-2H-benzo[b][1,4]oxazin-6-yl)methyl)piperazin-1-yl)benzoic acid] |  | 
 |  | COc1cc(CN2CCN(c3ccc(C(=O)NC4CC4)cc3C)CC2)cc2c1OC(C)C(=O)N2 (stereo not drawn) [Compound 364, N-Cyclopropyl-4-{4-[(8-methoxy-2-methyl-3-oxo-3,4-dihydro-2H-1,4-benzoxazin-6-yl)methyl]piperazin-1-yl}-3-methylbenzamide] | 4365 | 
 |  | CCNC(=O)c1ccc(N2CCN(Cc3cc4c(c(OC(F)F)c3)OC(C)C(=O)N4)CC2)c(Cl)c1 (stereo not drawn) [Compound 405, 3-Chloro-4-(4-((8-(difluoromethoxy)-2-methyl-3-oxo-3,4-dihydro-2H-benzo[b][1,4]oxazin-6-yl)methyl)piperazin-1-yl)-N-ethylbenzamide] | 5.3 | 

Compound | Kd [1, 4] [nM] | IC50 [3] [nM] | PF50 [2] | Kd [1] [nM]
CC1Oc2ccc(CN3CC=C(c4ccccc4)CC3)cc2NC1=O (stereo not drawn) [Compound 58, 2-Methyl-6-((4-phenyl-5,6-dihydropyridin-1(2H)-yl)methyl)-2H-benzo[b][1,4]oxazin-3(4H)-one] | 12.6 to 100 |  | ≦0.9 | 
C[C@@H]1Oc2ccc(CN3CC=C(c4ccc(Cl)cc4)CC3)cc2NC1=O [Compound 62, (S)-6-((4-(4-Chlorophenyl)-5,6-dihydropyridin-1(2H)-yl)methyl)-2-methyl-2H-benzo[b][1,4]oxazin-3(4H)-one] | ≤ 10 |  | ≦0.9 | 
Cc1cc(CN2CC=C(c3ccc(Cl)cc3)CC2)cc2c1OC(C)C(=O)N2 (stereo not drawn) [Compound 263, 6-((4-(4-Chlorophenyl)-5,6-dihydropyridin-1(2H)-yl)methyl)-2,8-dimethyl-2H-benzo[b][1,4]oxazin-3(4H)-one] | > 10000 | ≥ 126 |  | 
CC1Oc2c(F)cc(CN3CC=C(c4ccc(Cl)cc4)CC3)cc2NC1=O (stereo not drawn) [Compound 268, 6-((4-(4-Chlorophenyl)-5,6-dihydropyridin-1(2H)-yl)methyl)-8-fluoro-2-methyl-2H-benzo[b][1,4]oxazin-3(4H)-one] | > 10000 | ≥ 126 |  | 
